Patent publication US5691348A, “Pyridyl imidazole derivatives and processes for the preparation thereof” (Daewoo Electronics Co., Ltd., priority 1994, dated 1997)

Tests used:
renal hypertensive rat = assay: Blood pressure lowering effect in renal hypertension; format: in vivo, Sprague-Dawley rat; conditions: Amount 3 mg; intravenous or oral (not specified)
Excerpt: To induce renal hypertension, left renal artery of 4 week-old male Sprague-Dawley rat (from The Korea Research Institute of Chemical Technology) was ligated. The rat was anesthetized with ether and the surgical region on the left abdomen of the rat was shaved, disinfected, and then incised about 1 cm vertically. The renal artery near abdominal aorta was isolated carefully from surrounding tissues and veins, and then ligated completely with a suture (4/0 sterile surgical silk). The muscular strata and skin of the surgical area were sutured with a suture (4/0 sterile surgical silk). The surgical region was disinfected to prevent infection and thereafter, 200 to 250 mg/kg/day of cephazolin sodium was injected intramuscularly for 2 days. 6 to 8 days after the ligation, rats showing systolic pressure of more than 180 mmHg were selected for renal hypertension test. The blood pressure was determined by a tail-cuff method from the tail under unanesthetized condition (Gerold, M. et al., Arzneimittel-Forsch., 18, 1285(1968)).
Each of the compounds to be tested was administered intravenously or orally into the renal hypertensive rat. The blood pressure of the rat was determined by direct method (Chiu, A. T. et al., J. Pharmacol. Exp. Ther., 250, 867(1989)) using a catheter. The rat was anesthetized with ketamine hydrochloride (125 mg/kg, i.p.) and a catheter was filled with saline and inserted into a carotid artery and […]. The surgical area was sutured with a metal clip. The rat was relaxed at least 3 hours and the catheter in the carotid artery was adapted to an isotec pressure transducer to determine the blood pressure and heart rate with a physiograph (Linearcorder WR3310). After the blood pressure was stabilized, the test compound was administered intravenously or orally. For intravenous administration, the administered volume and washing volume were 1.0 ml/kg and 0.2 ml, respectively. The blood pressure and heart rate were measured in regular intervals up to 24 hours after the administration of the test compound and compared with those measured after the administration of the control compound Losartan.
The test compound was dissolved in 0.05N KOH for intravenous administration and suspended in Tween 80 for oral administration.

unanesthetized dogs = assay: Maximum blood pressure lowering effect in unanesthetized dogs at different amounts; format: in vivo, dog
Procedure: A number of dog was fed freely in a feeding room and those weighing 7 to 12 kg in good health were selected regardless of their gender.
The test dog was anesthetized with 30 mg/kg of pentobarbital sodium by intravenous injection and the left femoral artery and femoral vein were separated carefully. Silicone catheter, specially prepared and filled with saline treated with heparin (1,000 IU/ml), was cannulated into the blood vessels. After the surgery, the dog was constrained to measure the blood pressure continuously with Gould 2000 physiograph adapted to a Grass P23XL pressure transducer; and the heart rate was monitored with ECG/Biotacho amplifier. The dog was tested at least 2 days after the surgery.
10 mg/kg of furosemide was injected intramuscularly 18 hours (in case of intravenous injection, 2 hours) before the beginning of the test (administration of the test compound) to improve the activity of renin in blood plasma. After the injection of furosemide, neither food nor water was provided. The test compound was suspended in Tween 80 and administered in an amount of 20 mg/kg orally. The blood pressure and heart rate were measured up to 8 hours after the administration of each test compound.
The maximum blood pressure lowering effect of the present compounds and the control compounds were determined in different amounts of administration using the same method as (i) and the results are given in Table 4.

angiotensin II receptor = assay: Angiotensin II receptor binding assay ([3H] angiotensin II); parameters: species or system rat (Sprague-Dawley adrenal cortex/medulla; Wistar liver); conditions: 25° C., 60 minutes, test concentration not given
Procedure: 1. Angiotensin II receptor binding assay
In accordance with the procedure disclosed in Chiu, A. T. et al., Eur. J. Pharm., 157, 13(1981), a ligand marked with a radioisotope was reacted with an angiotensin II receptor and the reactant was filtered with a glass fiber to remove unreacted ligand. After washing the filter, the amount of the remaining isotope was measured to determine the binding activity of the ligand, as described below in detail.
Sprague-Dawley rats and Wistar rats of 250 to 350 g (from The Korea Research Institute of Chemical Technology) were tested and the test procedures were carried out at 4° C., unless otherwise specified. Adrenal gland was separated from the Sprague-Dawley rats (liver, in the case of Wistar rats) into cortex and medulla. The separated adrenal cortex and medulla were washed with a sucrose buffer solution (0.2M sucrose, 1 mM EDTA, 10 mM Tris, Ph 7.2) and homogenized in the same buffer solution by using a Teflon pestle and a Brinkmann homogenizer. The homogenates were centrifuged at 3,000× g for 10 minutes to remove precipitates and further centrifuged at 12,000× g for 13 minutes. The final supernatants were centrifuged at 102,000× g for 1 hour to obtain precipitates, which were washed with a Tris buffer solution (50 mM Tris, 5 mM MgCl2, pH 7.2) and recentrifuged at 102,000× g for 1 hour. The resulting precipitates were immediately processed at the following step or stored at -70° C.
The precipitates were suspended in a Tris buffer solution. The amount of protein was determined by using a Bio-Rad DC protein analyzing kit and the protein concentration was adjusted to the amounts of: 0.2 to 0.3 mg/ml (Sprague-Dawley rat: adrenal cortex), 1.5 to 2.0 mg/ml (Sprague-Dawley rat: adrenal medulla), and 1.5 to 2.0 mg/ml (Wistar rat: liver). To the suspension, bovine serum albumin(BSA) was added to a concentration of 0.25 wt % and the resultant was immediately processed at the following step or stored at -70° C.
50 μl (based on ligand) of [^3 H] angiotensin II (NEN, NET-446) and 10 μl of each of the test compounds with various concentrations were added to the buffer solution (50 mM Tris (pH 7.2), 5 mM MgCl2, 0.25% BSA) to adjust the final volume to be 0.5 ml. 100 μl of the receptor suspension was added thereto and the resulting solution was reacted for 60 minutes while stirring in a water bath at 25° C. 3 ml of cold buffer solution for analysis was added to cease the reaction. The isotope which was bound to the receptor was isolated from the resultant by using Brandel Cell Harvester System with Whatman glass fiber GF/C. After washing the filter, the radioactivity of the filter was determined by using a liquid scintillation counter. Binding inhibition(%) of the test compound was calculated as follows:
Binding Inhibition(%)=[{(T-B)-(S-B)}/(T-B)]×100
wherein T is the radioactivity (cpm) of the reaction product untreated with the test compound, S is the radioactivity (cpm) of the reaction product treated with the test compound, and B is the radioactivity (cpm) of blank test.

CCCCc1nc2cc(-c3cccc[n+]3[O-])c(CO)nc2n1Cc1ccc(-c2ccccc2-c2nn[nH]n2)cc1 [Example 1, 2-Butyl-5-hydroxymethyl-6-(1-oxy-pyridin-2-yl)-3-[2'-(1H-tetrazol-5-yl)-biphenyl-4-ylmethyl]-3H-imidazo[4,5-b]pyridine]
Maximum Blood Pressure Lowering Effect (renal hypertensive rat): -60%
Maximum Blood Pressure Lowering Effect (unanesthetized dogs; 0.3 mg/kg): -17%
Maximum Blood Pressure Lowering Effect (unanesthetized dogs; 1 mg/kg): -25%
Binding Inhibition (angiotensin II receptor): 85.4%
